Where “and” joins values, the source holds several entries; their conditions need not be identical. Equal entries are not always repeated. Toxic doses and inconclusive results are not listed.
System: P388 leukemia ip, CD2F1 mice, survival T/C
Assay: NCI In Vivo Anticancer Drug Screen. Data for tumor model P388 Leukemia (intraperitoneal) in CD2F1 (CDF1) mice
Settings: endpoint: median survival time, higher = longer survival
In short: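 Mice carrying the transplanted tumor received test compound or vehicle. Survival was recorded in each group, and the value is the treated-group measurement divided by that of the vehicle-treated control group.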

[1] = dose: 50.0 mg/kg/injection, schedule: Q01DX009 (ip), vehicle: saline
[2] = dose: 100.0 mg/kg/injection, schedule: Q01DX009 (ip), vehicle: saline
[3] = dose: 200.0 mg/kg/injection, schedule: Q01DX009 (ip), vehicle: saline
[4] = dose: 50.0 mg/kg/injection, schedule: Q01DX005 (ip), vehicle: saline with Tween-80
[5] = dose: 100.0 mg/kg/injection, schedule: Q01DX005 (ip), vehicle: saline with Tween-80
[6] = dose: 200.0 mg/kg/injection, schedule: Q01DX005 (ip), vehicle: saline with Tween-80
[7] = dose: 100.0 mg/kg/injection, schedule: Q04DX003 (ip), vehicle: saline with Tween-80
[8] = dose: 50.0 mg/kg/injection, schedule: Q04DX003 (ip), vehicle: saline with Tween-80

For `O=C(CCl)NC(Cc1ccccc1F)C(=O)O` (configuration not stated), the T/C [1] was 106 % of control, the T/C [2] was 102 % of control and the T/C [3] was 101 % of control.
In the case of `O=S1(=O)CCN(Cc2ccncc2)CC1`, the T/C [1] is reported as 100 % of control, the T/C [2] is reported as 98 % of control and the T/C [3] is reported as 100 % of control.
With `Cc1c2c[n+]([O-])ccc2c(C)c2c1c1ccccc1n2C` the T/C (dose: 12.5 mg/kg/injection, schedule: Q04DX002 (ip), vehicle: saline with Tween-80) was 101 % of control, the T/C (dose: 25.0 mg/kg/injection, schedule: Q04DX002 (ip), vehicle: saline with Tween-80) was 101 % of control and the T/C (dose: 50.0 mg/kg/injection, schedule: Q04DX002 (ip), vehicle: saline with Tween-80) was 103 % of control. For the same molecule, the T/C (dose: 100.0 mg/kg/injection, schedule: Q04DX002 (ip), vehicle: saline with Tween-80) was 107 % of control and the T/C (dose: 200.0 mg/kg/injection, schedule: Q04DX002 (ip), vehicle: saline with Tween-80) was 113 % of control.
For `O=C(Cn1ccc(O)cc1=O)N1CCOCC1`, the T/C (dose: 100.0 mg/kg/injection, schedule: Q04DX003 (ip), vehicle: water) was 95 % of control, the T/C (dose: 200.0 mg/kg/injection, schedule: Q04DX003 (ip), vehicle: water) was 90 % of control and the T/C (dose: 400.0 mg/kg/injection, schedule: Q04DX003 (ip), vehicle: water) was 100 % of control.
For `COc1cc(OC)c(OC)cc1/C=N/NC(=O)N/N=C/c1cc(OC)c(OC)cc1OC`, the T/C (dose: 12.5 mg/kg/injection, schedule: Q01DX009 (ip), vehicle: distilled water + Tween-80) was 96 % of control, the T/C (dose: 25.0 mg/kg/injection, schedule: Q01DX009 (ip), vehicle: distilled water + Tween-80) was 96 % of control and the T/C (dose: 50.0 mg/kg/injection, schedule: Q01DX009 (ip), vehicle: distilled water + Tween-80) was 108 % of control. The T/C (dose: 100.0 mg/kg/injection, schedule: Q01DX009 (ip), vehicle: distilled water + Tween-80) was 99 % of control, the T/C (dose: 200.0 mg/kg/injection, schedule: Q01DX009 (ip), vehicle: distilled water + Tween-80) was 94 % of control and the T/C (dose: 400.0 mg/kg/injection, schedule: Q01DX009 (ip), vehicle: distilled water + Tween-80) was 86 % of control.
In the case of `CCOC(=O)/C(=C/c1ccco1)C(C)=O`, the T/C (dose: 100.0 mg/kg/injection, schedule: Q01DX009 (ip), vehicle: Klucel (hydroxypropylcellulose) (HPC)) is reported as 102 % of control and the T/C (dose: 200.0 mg/kg/injection, schedule: Q01DX009 (ip), vehicle: Klucel (hydroxypropylcellulose) (HPC)) is reported as 110 % of control.
With `O=C(C1CCCCC1)C1CCCCC1CC1CCCCC1` (configuration not stated) the T/C [4] was 102 % of control, the T/C [5] was 107 % of control and the T/C [6] was 107 % of control.
`OCC1OC(O)C(N=Cc2ccc3c(c2)OCO3)C(O)C1O` (configuration not stated) was tested, and the T/C [4] was 104 % of control, the T/C [5] was 100 % of control and the T/C [6] was 102 % of control.
`C=CC(C)(C)C1(O)Oc2cc(OC)ccc2C=C1c1ccccc1` (configuration not stated) was tested, and the T/C (dose: 100.0 mg/kg/injection, schedule: Q01DX001 (ip), vehicle: Klucel (hydroxypropylcellulose) (HPC)) was 101 % of control, the T/C (dose: 200.0 mg/kg/injection, schedule: Q01DX001 (ip), vehicle: Klucel (hydroxypropylcellulose) (HPC)) was 101 % of control and the T/C (dose: 400.0 mg/kg/injection, schedule: Q01DX001 (ip), vehicle: Klucel (hydroxypropylcellulose) (HPC)) was 91 % of control.
In the case of `CC(=O)N1CCCC2=C1CCCCC2`, the T/C (dose: 100.0 mg/kg/injection, schedule: Q04DX003 (ip), vehicle: saline) is reported as 92 % of control, the T/C (dose: 200.0 mg/kg/injection, schedule: Q04DX003 (ip), vehicle: saline) is reported as 100 % of control and the T/C (dose: 400.0 mg/kg/injection, schedule: Q04DX003 (ip), vehicle: saline) is reported as 101 % of control.
For `COc1ccc(Cc2nnc3nc(OC)c(-c4ccc(OC)cc4)n3n2)cc1`, the T/C [4] was 108 % of control and 87 % of control, the T/C [5] was 108 % of control and the T/C [6] was 86 % of control and 98 % of control.
For `COCC[P+](c1ccccc1)(c1ccccc1)c1ccccc1`, the T/C (dose: 1.56 mg/kg/injection, schedule: Q01DX009 (ip), vehicle: water) was 103 % of control, the T/C (dose: 3.13 mg/kg/injection, schedule: Q01DX009 (ip), vehicle: water) was 99 % of control and 109 % of control and the T/C (dose: 6.25 mg/kg/injection, schedule: Q01DX009 (ip), vehicle: water) was 112 % of control and 123 % of control. The T/C (dose: 12.5 mg/kg/injection, schedule: Q01DX009 (ip), vehicle: water) was 123 % of control, the T/C (dose: 25.0 mg/kg/injection, schedule: Q01DX009 (ip), vehicle: water) was 105 % of control and 119 % of control and the T/C (dose: 50.0 mg/kg/injection, schedule: Q01DX009 (ip), vehicle: water) was 116 % of control.
In the case of `CCCCCn1c(Cl)c(C=O)c2ccccc21`, the T/C (dose: 100.0 mg/kg/injection, schedule: Q04DX002 (ip), vehicle: Klucel (hydroxypropylcellulose) (HPC)) is reported as 97 % of control, the T/C (dose: 200.0 mg/kg/injection, schedule: Q04DX002 (ip), vehicle: Klucel (hydroxypropylcellulose) (HPC)) is reported as 98 % of control and the T/C (dose: 400.0 mg/kg/injection, schedule: Q04DX002 (ip), vehicle: Klucel (hydroxypropylcellulose) (HPC)) is reported as 100 % of control.
`C/C(N=NC(=S)N1CC(C)OC(C)C1)=C1\C=CC=CN1O` (configuration not stated) was tested, and the T/C [4] was 111 % of control, the T/C [5] was 104 % of control and the T/C [6] was 106 % of control.
In the case of `C[C@@H]1C[C@H]2C(=CC1=O)CC[C@@H]1[C@@H]2CC[C@]2(C)[C@@H](O)CC[C@@H]12`, the T/C [7] is reported as 100 % of control, the T/C (dose: 200.0 mg/kg/injection, schedule: Q04DX003 (ip), vehicle: saline with Tween-80) is reported as 109 % of control and the T/C (dose: 400.0 mg/kg/injection, schedule: Q04DX003 (ip), vehicle: saline with Tween-80) is reported as 100 % of control.
In the case of `[Cl][Sn]1([Cl])[CH2]CCCCCC[CH2][Sn]([Cl])([Cl])[CH2]CCCCCC[CH2]1`, the T/C [4] is reported as 92 % of control and the T/C [5] is reported as 92 % of control.
`COC(=O)C1C(O)C(C)C(O)C(C)(O)/C=C/C=C(C)C(=O)Nc2c(C)c(OC(C)=O)c3c(c2O)C(=O)C(C)=C2OCOC(=C23)C(C)=CC(C)(O)C(O)C(C)C1OC(C)=O` (configuration not stated) was tested, and the T/C (dose: 60.0 mg/kg/injection, schedule: Q01DX005 (ip), vehicle: saline with Tween-80) was 95 % of control, the T/C (dose: 120.0 mg/kg/injection, schedule: Q01DX005 (ip), vehicle: saline with Tween-80) was 105 % of control and the T/C (dose: 240.0 mg/kg/injection, schedule: Q01DX005 (ip), vehicle: saline with Tween-80) was 108 % of control.
`OCC1CCC2CCCCC2N1` (configuration not stated) was tested, and the T/C (dose: 50.0 mg/kg/injection, schedule: Q01DX005 (ip), vehicle: saline) was 104 % of control, the T/C (dose: 100.0 mg/kg/injection, schedule: Q01DX005 (ip), vehicle: saline) was 102 % of control and the T/C (dose: 200.0 mg/kg/injection, schedule: Q01DX005 (ip), vehicle: saline) was 101 % of control.
For `CCCCCCCCC(C(=O)c1ccccc1)=C(C(F)(F)F)C(F)(F)F`, the T/C (dose: 25.0 mg/kg/injection, schedule: Q04DX003 (ip), vehicle: saline with Tween-80) was 100 % of control, the T/C [8] was 95 % of control and the T/C [7] was 104 % of control.
For `C=COCC(C)C` (tested in a mixture with another compound), the T/C (dose: 1.56 mg/kg/injection, schedule: Q01DX009 (ip), vehicle: saline with Tween-80) was 108 % of control, the T/C (dose: 3.12 mg/kg/injection, schedule: Q01DX009 (ip), vehicle: saline with Tween-80) was 101 % of control and the T/C (dose: 6.25 mg/kg/injection, schedule: Q01DX009 (ip), vehicle: saline with Tween-80) was 96 % of control.
In the case of `COC1(OC)C(C)C(C#N)(C#N)C1(OC)OC` (configuration not stated), the T/C (dose: 60.0 mg/kg/injection, schedule: Q01DX005 (ip), vehicle: Klucel (hydroxypropylcellulose) (HPC)) is reported as 100 % of control and the T/C (dose: 120.0 mg/kg/injection, schedule: Q01DX005 (ip), vehicle: Klucel (hydroxypropylcellulose) (HPC)) is reported as 106 % of control.
In the case of `O=S(=O)(c1ccc(Cl)cc1)S(=O)(=O)c1ccc(Cl)cc1`, the T/C [1] is reported as 92 % of control, the T/C [2] is reported as 97 % of control and the T/C [3] is reported as 101 % of control.
For `CCOc1ccc(/C=N/NC(=O)c2c(-c3ccccc3)noc2C)cc1`, the T/C [4] was 86 % of control, the T/C [5] was 91 % of control and the T/C [6] was 97 % of control.
For `O=NN(CCF)C(=O)NC12CC3CC(CC(C3)C1)C2`, the T/C (dose: 22.0 mg/kg/injection, schedule: Q04DX003 (ip), vehicle: saline with Tween-80) was 175 % of control, the T/C (dose: 33.0 mg/kg/injection, schedule: Q04DX003 (ip), vehicle: saline with Tween-80) was 195 % of control and the T/C [8] was 225 % of control. For the same molecule, the T/C (dose: 75.0 mg/kg/injection, schedule: Q04DX003 (ip), vehicle: saline with Tween-80) was 240 % of control and the T/C (dose: 100.0 mg/kg/injection, schedule: Q04DX003 (ip), vehicle: Klucel (hydroxypropylcellulose) (HPC)) was 259 % of control.
With `CCc1cccc(C)c1NC(=O)C(=O)C(C#N)c1ccccc1` (configuration not stated) the T/C (dose: 60.0 mg/kg/injection, schedule: Q01DX005 (ip), vehicle: saline) was 105 % of control, the T/C (dose: 120.0 mg/kg/injection, schedule: Q01DX005 (ip), vehicle: saline) was 108 % of control and the T/C (dose: 240.0 mg/kg/injection, schedule: Q01DX005 (ip), vehicle: saline) was 108 % of control.

— PubChem BioAssay AID330 (DTP/NCI, 2004)
